For four molecules, IC50 results are on record in patent publication US9260413B2, “Inhibitors of catechol O-methyl transferase and their use in the treatment of psychotic disorders” (Merck Sharp & Dohme Corp., priority 2013, dated 2016).

The target in the assay is purified human COMT enzyme of the Val158 variant (membrane-bound MB-COMT) (Homo sapiens (Human), UniProt P21964). Nature of the assay: Esculetin or Fluorescence Polarization assay (MB-COMT). It counts as biochemical. As to the method:
Assays utilized purified human COMT enzyme of the Val158 variant (membrane-bound MB-COMT or soluble S-COMT) containing a C-terminal 6 or 10-histidine tag.
In a typical experiment the COMT inhibitory activity of the compounds of the present invention was determined in accordance with the following experimental methods detailed below. The fluorescence assay was based on methylation of a substrate (6,7-dihydroxycoumarin or ‘esculetin’) by COMT to produce a highly fluorescent product (7-hydroxy-6-methoxycoumarin or ‘scopoletin’). The reaction requires the presence of magnesium ions and a methyl donor, in this case S-adenosylmethionine (SAM). […] Recombinant enzyme was diluted in assay buffer (100 mM Na2HPO4 pH 7.4, 1 mM DTT, 0.005% Tween-20) and 35 μL was added to assay wells containing 1 μL of compound. Preincubation of COMT enzyme and compound proceeded for 2 hours at room temperature. Enzyme assays were initiated with 5 uL of a mixture containing 40 μM SAM (USB catalog # US10601), 4 μM esculetin (substrate) and 40 mM MgCl2. The formation of product (seopoletin) was monitored over time by fluorescence (excitation 340 nm, emission 460 nm, no lag, 100 μs integration time, 5 flashes, top read) using a Tecan Safire^2 plate reader. Assays were monitored over time until a signal to background of 4 to 1 was achieved. Titration curves and IC50 values were calculated using standard procedures. […] In some cases, compounds were not preincubated with MB-COMT for 2 hours at room temperature prior to starting the enzyme assays.
To determine IC50 values in the fluorescence polarization assay, solutions of test compounds were prepared and preincubated with COMT enzyme as stated above. […] After 25 minutes incubation at room temperature, reactions were quenched with 5 μL 250 mM EDTA, […]. To quenched reactions, 20 μL of a preformed complex containing S-adenosyl-L-cysteine (SAC) TAMRA tracer (2 mM from Ana spec diluted 1:80,000) and a 1:20 dilution of anti-S-adenosyl-L-homocysteine antibody (mouse monoclonal from Abbott Homocysteine detection kit, catalog #7D29-20) was prepared in assay buffer 11 (Na2HPO4 pH 7.2). Prior to combining with quenched enzyme assays, the SAH antibody/SAC TAMRA tracer complex was preformed at room temperature for 30 minutes while protected from light. Therefore, the final concentration of the SAH antibody/SAC TAMRA mix was 1:60 and 1:240,000, respectively. […] Titration curves and IC50 values were calculated using standard protocols.
(In general: Polarisation of emitted light reports the rotation of a fluorescent probe.)

Setting [1] is: Esculetin or Fluorescence Polarization assay, Val158 variant.

Where two headings read alike, the source gives them in different places.

As usually defined, the IC50 is the midpoint of a concentration-inhibition curve. Read a low IC50 as greater potency in that assay.

Take `Cn1c(-c2ccc(Cl)c(C(F)(F)F)c2)ncc(O)c1=O` [Example 1, 2-[4-chloro-3-(trifluoromethyl)phenyl]-5-hydroxy-3-methylpyrimidin-4(3H)-one]: the IC50 under setting [1] stood at 180 nM.
`O=c1[nH]c(-c2ccc(C(F)(F)F)cc2)ncc1O` [Example 6, 5-Hydroxy-2-(4-trifluoromethyl-phenyl)-3H-pyrimidin-4-one]: it took 210 nM to reach half-maximal inhibition (IC50).
In the case of `O=c1[nH]c(-c2cccc(C#Cc3ccccc3)c2)ncc1O` [Example 8], under setting [1], the IC50 stood at 590 nM.
Molecule `COc1ccc(Oc2cccc(-c3ncc(O)c(=O)n3C)c2)cc1` [Example 5, 5-hydroxy-2-[3-(4-methoxyphenoxy)phenyl]-3-methylpyrimidin-4(3H)-one] gave an IC50 of 93 nM.
